Data reported in patent US5481021A, “Phenyl amidines derivatives useful as platelet aggregation inhibitors” (G. D. Searle & Co., priority 1994, dated 1996).

Columns and labels:
[1] = tested on: Platelet aggregation in dog PRP; test: In-Vitro Platelet Aggregation in PRP (ADP induced); assay type: cell-based; details: Canis lupus familiaris; for IC50: ADP 50 μm, 37° C.; for inhibition at 10 µM: ADP, test concentration 1 × 10^-5
Procedure: In-Vitro Platelet Aggregation in PRP
(§1) Healthy male or female dogs were fasted for 8 hours prior to drawing blood; then 30 ml whole blood was collected using a butterfly needle and 30 cc plastic syringe with 3 ml of 0.129M buffered sodium citrate (3.8%). The syringe was rotated carefully as blood was drawn to mix the citrate. Platelet-rich plasma (PRP) was prepared by centrifugation at 975×g for 3.17 minutes at room temperature, allowing the centrifuge to coast to a stop without braking. The PRP was removed from the blood with a plastic pipette and placed in a plastic capped, 50 ml Corning conical sterile centrifuge tube which was held at room temperature. Platelet poor plasma (PPP) was prepared by centrifuging the remaining blood at 2000×g for 15 minutes at room temperature allowing the centrifuge to coast to a stop without braking. The PRP was adjusted with PPP to a count of 2-3×10^8 platelets per ml. 400 for 5-(p-cyanophenyl)pentanoic acid in Section C of Example 1.
as §1, with “400 μl of the PRP preparation and 50 μl of the compound to be tested or saline were preincubated” for “400”, “1 minute at 37° C.” for “5-(p-cyanophenyl)pentanoic acid”, “a BioData aggregometer (BioData, Horsham, Pa.). 50 μl” for “Section C”, “adenosine 5'diphosphate (ADP) (50 μm final concentration) was added to the cuvettes and the aggregation was monitored for 1 minute. All compounds are tested in duplicate. Results are calculated as follows:” for “Example 1.”
Percent of control=[(maximal OD minus initial OD of compound) divided by
(maximal OD minus initial OD of control saline)]×100. The %
inhibition=100-(percent of control).

[2] = target: T1, fibrinogen binding to platelets (gpIIb/IIIa) (Homo sapiens, UniProt P05106+P08514); test: Fibrinogen Binding Assay (125I-fibrinogen binding to ADP-activated platelets); details: ADP 10 μM, 125I-fibrinogen 0.3 μM, 40 min at 37° C., read-out: Human Fg binding IC50
T1 construct: endogenous in cells
T1 sequence (P08514 32-887 limits assumed): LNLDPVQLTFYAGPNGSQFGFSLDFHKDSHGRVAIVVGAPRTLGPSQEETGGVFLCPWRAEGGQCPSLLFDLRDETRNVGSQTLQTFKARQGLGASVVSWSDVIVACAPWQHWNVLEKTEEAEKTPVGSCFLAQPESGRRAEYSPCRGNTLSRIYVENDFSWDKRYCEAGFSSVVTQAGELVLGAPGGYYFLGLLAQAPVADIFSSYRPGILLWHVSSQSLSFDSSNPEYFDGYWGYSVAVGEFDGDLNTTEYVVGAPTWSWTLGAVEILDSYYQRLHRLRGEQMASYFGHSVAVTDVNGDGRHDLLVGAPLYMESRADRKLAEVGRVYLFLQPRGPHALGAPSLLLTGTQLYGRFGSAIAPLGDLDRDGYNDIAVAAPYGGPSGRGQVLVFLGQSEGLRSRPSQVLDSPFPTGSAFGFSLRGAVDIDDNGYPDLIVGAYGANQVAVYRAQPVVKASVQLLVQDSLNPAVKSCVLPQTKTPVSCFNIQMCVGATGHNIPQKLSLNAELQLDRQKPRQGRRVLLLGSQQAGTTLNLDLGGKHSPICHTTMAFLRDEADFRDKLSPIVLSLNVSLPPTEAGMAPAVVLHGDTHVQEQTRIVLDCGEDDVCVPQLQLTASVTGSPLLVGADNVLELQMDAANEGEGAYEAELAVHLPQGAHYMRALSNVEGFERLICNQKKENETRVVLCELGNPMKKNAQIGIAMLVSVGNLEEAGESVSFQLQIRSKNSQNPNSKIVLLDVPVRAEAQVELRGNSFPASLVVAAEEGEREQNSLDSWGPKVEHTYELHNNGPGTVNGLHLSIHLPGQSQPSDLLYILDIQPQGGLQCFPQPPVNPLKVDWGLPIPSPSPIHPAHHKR
T1 sequence (P08514 891-1039 partner limits assumed): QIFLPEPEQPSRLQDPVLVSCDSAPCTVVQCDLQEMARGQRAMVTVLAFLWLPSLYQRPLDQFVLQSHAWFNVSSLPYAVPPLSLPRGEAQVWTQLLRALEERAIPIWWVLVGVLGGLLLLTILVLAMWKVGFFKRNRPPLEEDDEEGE
T1 sequence (P05106 27-788): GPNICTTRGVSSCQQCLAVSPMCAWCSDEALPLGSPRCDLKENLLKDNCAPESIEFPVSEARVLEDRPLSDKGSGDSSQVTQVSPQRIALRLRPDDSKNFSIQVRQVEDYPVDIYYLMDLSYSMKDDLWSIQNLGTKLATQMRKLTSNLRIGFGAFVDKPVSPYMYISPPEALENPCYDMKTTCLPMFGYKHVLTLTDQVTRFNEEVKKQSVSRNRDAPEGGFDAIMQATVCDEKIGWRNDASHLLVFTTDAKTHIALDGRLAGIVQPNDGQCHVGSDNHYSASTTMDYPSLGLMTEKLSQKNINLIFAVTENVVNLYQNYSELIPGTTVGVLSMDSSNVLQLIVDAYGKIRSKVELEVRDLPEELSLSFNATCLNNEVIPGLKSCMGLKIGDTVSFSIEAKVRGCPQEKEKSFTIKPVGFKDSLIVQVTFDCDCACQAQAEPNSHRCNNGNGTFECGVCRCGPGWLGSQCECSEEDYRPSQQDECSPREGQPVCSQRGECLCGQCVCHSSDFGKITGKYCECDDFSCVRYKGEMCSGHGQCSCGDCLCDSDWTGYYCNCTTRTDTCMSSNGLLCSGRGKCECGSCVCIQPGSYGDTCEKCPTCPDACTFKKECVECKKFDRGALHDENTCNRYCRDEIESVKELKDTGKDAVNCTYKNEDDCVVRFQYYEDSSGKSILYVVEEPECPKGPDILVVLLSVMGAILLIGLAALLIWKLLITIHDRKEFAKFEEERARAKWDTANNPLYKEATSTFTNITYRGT
Procedure: Fibrinogen binding was performed essentially as described by Plow et al., Blood 70, 110-115 (1987). Briefly, blood from humans who had not been given any antiplatelet drugs in the previous two weeks was collected into 1/10th volume of CCD buffer (100 mM sodium citrates, 136 mM glucose, pH 6.5). The blood was centrifuged for 3 min at 1000×g and platelet rich plasma was transferred to a plastic tube with a plastic pipet and placed on ice. After 15 minutes, 1/2 volume of ice cold CCD buffer was added and the sample was centrifuged at 900×g for 10 min at 2° C. The supernatant was decanted and the platelet pellet was gently resuspended in 1/2 the original volume of ice cold modified Tyrode's buffer (137 mM NaCl, 2.6 mM KCl, 12 mM NaHCO3, 5.5 mM glucose, 15 mM HEPES, 0.5% BSA, pH 7.4). After incubating for 30 minutes at 37° C., the platelet count was adjusted to 4×10^8 platelets/ml with modified Tyrode's buffer. To test samples (final concentration=1×10^8 platelets/ml) were added in sequence: ADP (10 μM), CaCl2 (2 mM), test compound, and ^125 I-fibrinogen (0.3 μM) to the aforesaid final concentrations in a volume of 200 μl. The samples were incubated for 40 min at 37° C. and 50 μl aliquots were centrifuged at 8,000×g through a 20% sucrose solution (400 μl). The tubes were quick frozen and the tips containing the platelet pellet were cut and assayed for bound ^125 I-fibrinogen by gamma scintillation counting. Specific binding was determined in each test by subtracting from the total binding the amount of ^125 I-fibrinogen bound in the presence of a 60-fold excess of unlabeled fibrinogen.

[3] = tested on: ex vivo collagen induced platelet aggregation; test: Inhibition of ex vivo collagen induced aggregation; assay type: in vivo, dog (Beagle); details: dog
Procedure: INHIBITION OF EX VIVO COLLAGEN INDUCED AGGREGATION BY COMPOUNDS OF THE INVENTION
PURPOSE--The purpose of this assay is to determine the effects of antiplatelet compounds on ex vivo collagen induced platelet aggregation when administered either intravenously or orally to dogs.
Pretreatment (control) blood samples are drawn from either conscious or anesthetized dogs (Beagles) and centrifuged to prepare platelet rich plasma (PRP). Aggregatory response to collagen is measured in an aggregometer and used as Control. Compounds are administered, either intragasterically (either by capsule or stomach tube or intravenously. Blood samples are drawn at predetermined intervals after compound administration, PRP prepared and aggregation to collagen determined. Compound inhibition of aggregation is determined by comparing the aggregation response after compound administration to the pretreatment response. The study is continued for a maximum of 24 hours or until the platelet aggregation returns to control levels. (If aggregation is still inhibited after 7 hours, a blood sample is drawn the following morning and tested.) Duration of activity is determined by the length of time platelet aggregation is inhibited after compound administration.

Compound	IC50 [1] [nM]	inhibition at 10 µM [1] [%]	IC50 [2] [nM]	Ex-vivo collagen induced aggregation, Max % Inhibition ([3]; .025 mg/kg, IG) [%]	Ex-vivo collagen induced aggregation, Max % Inhibition ([3]; 0.1 mg/kg, IV) [%]
COc1ccc(CCNC(=O)[C@H](CC(=O)O)NC(=O)CCCCc2ccc(C(=N)N)cc2)cc1 [3S [[5-[4-(aminoiminomethyl)phenyl]-1-oxopentyl]amino]-4-[[2-4-(methoxyphenyl)ethyl]amino]-4-oxobutanoic acid]	420	100			
COc1ccc(CCN(CCC(=O)O)C(=O)[C@H](CC(=O)O)NC(=O)CCCCc2ccc(C(=N)N)cc2)cc1 [3S-[[5-[4-(aminoiminomethyl)phenyl]-1-oxopentyl)amino]-4-[(2-carboxyethyl)(2-(4-methoxyphenyl)ethyl]amino]-4-oxobutanoic acid]		66			
N=C(N)c1cccc(/C=C\CCCC(=O)N[C@@H](CC(=O)O)C(=O)N[C@@H](Cc2ccccc2)C(=O)O)c1 [N-[N-[6-[3-(aminoiminomethyl)phenyl]-1-oxo-5Z-hexenyl]-L-α-aspartyl]-L-phenylalanine]	4300	100	600		
N=C(N)c1ccc(CCCCC(=O)N[C@@H](CC(=O)O)C(=O)NCCc2c[nH]c3ccccc23)cc1 [3S-[[5-[4-(aminoiminomethyl)phenyl]-1-oxopentyl]amino]-4-[[2-(1H-indol-3-yl)ethyl]amino]-4-oxobutanoic acid]	280	100			
N=C(N)c1ccc(/C=C/CCC(=O)N[C@@H](CC(=O)O)C(=O)N[C@@H](Cc2ccccc2)C(=O)O)cc1 [N-[5-[4-(aminoiminomethyl)phenyl]-1-oxo-4E-pentenyl]-N-L-α-aspartyl-L-phenylalanine]	82	100	7		
N=C(N)c1ccc(CC(=O)CCC(=O)N[C@@H](CC(=O)O)C(=O)N[C@@H](Cc2ccccc2)C(=O)O)cc1 [N-[N-[5-[4-(aminoiminomethyl)phenyl]-1,4-dioxopentyl]-L-α-aspartyl]-L-phenylalanine]	180	100			
N=C(N)c1ccc(CCCCC(=O)N[C@@H](CC(=O)O)C(=O)N(CCC(=O)O)CCc2ccccc2)cc1 [3S-[[5-[4-(Aminoiminomethyl)phenyl]-1-oxopentyl]amino]-4-[(2-carboxyethyl)(2-phenylethyl)amino]-4-oxobutanoic acid]	10000	53			
COC(=O)C[C@H](NC(=O)CCCCc1ccc(C(=N)N)cc1)C(=O)N[C@@H](Cc1ccccc1)C(=O)OC [N-[5-[4-(aminoiminomethyl)phenyl]-1-oxopentyl]-N-L-α-aspartyl-L-phenylalanine, dimethyl ester]	400	100			
N=C(N)c1ccc(/C=C\CCC(=O)N[C@@H](CC(=O)O)C(=O)N[C@@H](Cc2ccccc2)C(=O)O)cc1 [N-[N-[5-[4-(aminoiminomethyl)phenyl]-1-oxo-4Z-pentenyl]-L-α-aspartyl]-L-phenylalanine]	600	100			
CN(CC(=O)N[C@@H](CC(=O)O)C(=O)N[C@@H](Cc1ccccc1)C(=O)O)C(=O)CCc1ccc(C(=N)N)cc1 [N-[N-[2-[[3-[4-(aminoiminomethyl)phenyl]-1-oxopropyl]methylamino] -1-oxoethyl]-L-α-aspartyl]-L-phenylalanine]	700	100			
N=C(N)c1cccc(CCCCC(=O)N[C@@H](CC(=O)O)C(=O)N[C@@H](Cc2ccccc2)C(=O)O)c1 [N-[N-[5-[3-(aminoiminomethyl)phenyl-1-oxopentyl]-L-α-aspartyl]-L-phenylalanine]		25			
N=C(N)c1ccc(CCCCC(=O)N[C@@H](CC(=O)O)C(=O)N(CCC(=O)O)Cc2ccccc2)cc1 [3S-[[5-[4-(aminoiminomethyl)phenyl]-1-oxopentyl]amino]-4-[(2-carboxyethyl)(phenylmethyl)amino]-4-oxobutanoic acid]	4300	100			
N=C(N)c1ccc2cc(OCC(=O)N[C@@H](CC(=O)O)C(=O)N[C@@H](Cc3ccccc3)C(=O)O)ccc2c1 [N-[N-[2-[[6-(aminoiminomethyl)-2-naphthalenyl]oxy]-1-oxoethyl]-L-α-aspartyl]-L-phenylalanine]	1100	100			
N=C(N)c1ccc(CC(O)CCC(=O)N[C@@H](CC(=O)O)C(=O)N[C@@H](Cc2ccccc2)C(=O)O)cc1 (stereo partly drawn) [N-[N-[5-[4-(aminoiminomethyl)phenyl]-4-hydroxy-1-oxopentyl]-L-α-aspartyl]-L-phenylalanine]		15			
CCOC(=O)C[C@H](NC(=O)CCCCc1ccc(C(=N)N)cc1)C(=O)N[C@@H](Cc1ccccc1)C(=O)OCC [N-[N-[5-[4-(aminoiminomethyl)phenyl]-1-oxopentyl]-L-α-aspartyl]-L-phenylalanine, diethyl ester]				39	
N=C(N)c1ccc2cc(CCC(=O)N[C@@H](CC(=O)O)C(=O)N[C@@H](Cc3ccccc3)C(=O)O)ccc2c1 [N-[N-[3-[6-(aminoiminomethyl)-2-naphthalenyl]-1-oxopropyl]-L-α-aspartyl]-L-phenylalanine]	5500	100			
CC(C)[C@H](NC(=O)[C@H](CC(=O)O)NC(=O)CCCCc1ccc(C(=N)N)cc1)C(=O)O [N-[5-[4-(aminoiminomethyl)phenyl]-1-oxopentyl]-N-L-α-aspartyl-L-valine]	130	100			
N=C(N)c1ccc(CCCC(=O)N[C@@H](CC(=O)O)C(=O)N[C@@H](Cc2ccccc2)C(=O)O)cc1 [N-[N-[4-[4-(aminoiminomethyl)phenyl]-1-oxobutyl]-L-α-aspartyl]-L-phenylalanine]		4			
CC(C)CN(CCC(=O)O)C(=O)[C@H](CC(=O)O)NC(=O)CCCCc1ccc(C(=N)N)cc1 [3S-[[5-[4-(aminoiminomethyl)phenyl]-1-oxopentyl]amino]-4-[(2-carboxyethyl)(2-methylpropyl)amino]-4-oxobutanoic acid]		14			
CN(C(=O)[C@H](CC(=O)O)NC(=O)CCCCc1ccc(C(=N)N)cc1)[C@@H](Cc1ccccc1)C(=O)O [N-[N-[5-[4-(aminoiminomethyl)phenyl]-1-oxopentyl]-L-α-aspartyl]-N-methyl-L-phenylalanine]	1500	100			
CC(C)CNC(=O)[C@H](CC(=O)O)NC(=O)CCCCc1ccc(C(=N)N)cc1 [3S-[[5-[4-(aminoiminomethyl)phenyl]-1-oxopentyl]amino]-4-[(2-methylpropyl)amino]-4-oxobutanoic acid]	700	100			100
